Test systems include HCT-15 colon; HOP-92 NSCLC; TK-10 renal; UACC-62 melanoma; OVCAR-4 ovarian; SK-MEL-28 melanoma; M14 melanoma; SW-620 colon; PC-3 prostate; RXF 393 renal.
Common to all, as to assay: DTP human tumour cell line panel, 48 h

Several values for one entry are separate records, joined by “and”; a condition that tells them apart may be missing. Equal values may be shown once.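 Cultured in 96-well plates, cells were exposed to test compound for 48 hours across five concentrations. GI50 = concentration required for 50% inhibition of growth. TGI denotes the concentration required for complete inhibition of growth.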

Regarding `COc1ccc(/C=C\c2cc(OC)c(OC)c(OC)c2)c(O)c1O`, the GI50 (commonly the concentration giving 50% growth inhibition) in the assay with HCT-15 colon is 0.0628 µM and 0.0643 µM; in the assay with HOP-92 NSCLC, 0.0588 µM; in the assay with UACC-62 melanoma, 0.238 µM; in the assay with OVCAR-4 ovarian, 0.959 µM; in the assay on SK-MEL-28 melanoma, 0.655 µM; in the assay on SW-620 colon it was 0.0715 µM. The GI50 in the assay with RXF 393 renal is < 0.0322 µM and 0.111 µM. Moreover, the TGI – broadly, the concentration giving total growth inhibition – was > 57.5 µM and 8.27 µM with HCT-15 colon; 55.8 µM in the assay on TK-10 renal; 17 µM and 6.88 µM in the assay with UACC-62 melanoma; 17 µM and 63.5 µM with OVCAR-4 ovarian; 49.6 µM and 60.2 µM in the assay with SK-MEL-28 melanoma; 9.95 µM in the assay with M14 melanoma. The TGI was 16.9 µM and 49.9 µM in the assay with SW-620 colon; 36.1 µM in the assay on PC-3 prostate; 36 µM and 6.31 µM with RXF 393 renal.

With `CC1CC(C)C2=NOS3=C2C1=NO3` (stereo unspecified), the TGI in the assay with HCT-15 colon, with HOP-92 NSCLC, in the assay on TK-10 renal, in the assay on UACC-62 melanoma, in the assay on OVCAR-4 ovarian and in the assay on SK-MEL-28 melanoma was greater than 100 µM each time. Also, the TGI in the assay with M14 melanoma, with SW-620 colon, with PC-3 prostate and in the assay on RXF 393 renal was greater than 100 µM each time.

`O=C1C(=O)N(c2cccc(C(F)(F)F)c2)C(=O)C(=O)C1c1nc2ccccc2s1`: the TGI in the assay on HCT-15 colon, with HOP-92 NSCLC, with TK-10 renal, in the assay on UACC-62 melanoma, with OVCAR-4 ovarian and with SK-MEL-28 melanoma was greater than 100 µM each time. Also, the TGI with M14 melanoma, in the assay on SW-620 colon, with PC-3 prostate and with RXF 393 renal was greater than 100 µM each time.

Consider `C1CCN2CC3CCCN4CCCC(C2C1)C34` (stereo unspecified), for which the TGI with HCT-15 colon, with HOP-92 NSCLC, in the assay on TK-10 renal, in the assay with UACC-62 melanoma, in the assay with OVCAR-4 ovarian and in the assay with SK-MEL-28 melanoma was greater than 100 µM throughout. Also, the TGI in the assay on M14 melanoma, in the assay on SW-620 colon, in the assay with PC-3 prostate and with RXF 393 renal was greater than 100 µM throughout. Besides, the GI50 in the assay on OVCAR-4 ovarian is > 100 µM and 24.7 µM.

`NC(=Nc1nc(-c2ccccn2)cc2ccccc12)c1ccccn1`: the GI50 is 0.000503 µM with HCT-15 colon; 0.0765 µM in the assay on HOP-92 NSCLC; 0.198 µM with TK-10 renal; 0.0492 µM with UACC-62 melanoma; 0.0798 µM with OVCAR-4 ovarian; 0.323 µM in the assay on SK-MEL-28 melanoma. Besides, the GI50 with M14 melanoma is 0.00816 µM; in the assay with SW-620 colon, 0.0505 µM; with PC-3 prostate, 0.0545 µM; with RXF 393 renal it was 0.32 µM. The TGI in the assay on HCT-15 colon is greater than 19.7 µM; in the assay with HOP-92 NSCLC, 5.92 µM; with TK-10 renal it was greater than 100 µM; with UACC-62 melanoma it was 0.171 µM and 0.266 µM; with SK-MEL-28 melanoma it was greater than 100 µM; in the assay with M14 melanoma it was 0.534 µM and 2.86 µM. The TGI with SW-620 colon is greater than 100 µM; with PC-3 prostate, greater than 100 µM; in the assay on RXF 393 renal, 0.795 µM.

For the compound `Nc1nc(N)c(N=Nc2ccc(C(=O)O)c(O)c2)c(N)n1`, the total growth inhibition concentration (TGI) in the assay with HCT-15 colon is greater than 100 µM; in the assay with HOP-92 NSCLC, greater than 100 µM; with TK-10 renal, greater than 100 µM; in the assay on UACC-62 melanoma, greater than 100 µM; with OVCAR-4 ovarian, 35.1 µM; in the assay on SK-MEL-28 melanoma, greater than 100 µM. Besides, the TGI with M14 melanoma, in the assay on SW-620 colon, with PC-3 prostate and in the assay with RXF 393 renal was greater than 100 µM in each case.

Turning to `O=S(=O)(Nc1ccc2ccccc2c1)c1ccc(-c2cnc(C3CC3)o2)cc1`, the GI50 in the assay with HCT-15 colon was 0.557 µM; in the assay on HOP-92 NSCLC, 3.68 µM; with TK-10 renal, 5.81 µM; in the assay on UACC-62 melanoma, 0.914 µM; in the assay with OVCAR-4 ovarian it was 3.22 µM; in the assay with SK-MEL-28 melanoma it was 4.8 µM. In addition, the GI50 in the assay on M14 melanoma was 0.701 µM; in the assay on SW-620 colon it was 0.468 µM; in the assay on PC-3 prostate it was 1.69 µM; in the assay with RXF 393 renal it was 0.573 µM. For the same compound, the TGI in the assay with HCT-15 colon was 19.2 µM; in the assay on HOP-92 NSCLC it was 30.9 µM; in the assay on TK-10 renal it was greater than 100 µM; in the assay on UACC-62 melanoma, 14.5 µM; with OVCAR-4 ovarian, 79.9 µM; in the assay with SK-MEL-28 melanoma, 20.8 µM. Besides, the concentration for total growth inhibition (TGI) with M14 melanoma was found to be 14.9 µM; with SW-620 colon it was 18.3 µM; in the assay on PC-3 prostate, 19.1 µM; with RXF 393 renal, 3.92 µM.

For the compound `CC(C)CCC(=O)[C@@H](C)[C@H]1[C@@H](OC2OCC(O)C(O)C2NS(C)(=O)=O)C[C@H]2[C@@H]3CC=C4C[C@@H](O)CC[C@]4(C)[C@H]3CC[C@]12C` (stereo partly specified), the GI50 in the assay with HCT-15 colon was 2.23 µM; with HOP-92 NSCLC it was 3.02 µM; in the assay with TK-10 renal, 6.63 µM; with UACC-62 melanoma it was 0.79 µM; in the assay on OVCAR-4 ovarian, 5.12 µM; in the assay on SK-MEL-28 melanoma it was 0.53 µM. Besides, the GI50 was 0.512 µM in the assay on M14 melanoma, 1.54 µM with SW-620 colon, 0.982 µM in the assay with PC-3 prostate and 0.178 µM in the assay with RXF 393 renal. In addition, the TGI amounted to 9.44 µM in the assay on HCT-15 colon; 10.6 µM in the assay with HOP-92 NSCLC; 23.5 µM in the assay on TK-10 renal; 1.95 µM in the assay with UACC-62 melanoma; 28.6 µM in the assay with OVCAR-4 ovarian; 1.53 µM with SK-MEL-28 melanoma. Further, the TGI in the assay on M14 melanoma worked out at 1.58 µM; in the assay on SW-620 colon, 6.02 µM; in the assay on PC-3 prostate it was 4.16 µM; in the assay on RXF 393 renal, 0.783 µM.

For `O=C(Nc1ccc2c(c1)OCO2)C(=O)c1c[nH]c2cc(F)ccc12`, the GI50 with HCT-15 colon was 0.67 µM; in the assay on HOP-92 NSCLC, 1.12 µM; in the assay on TK-10 renal, 7.04 µM; with UACC-62 melanoma, 0.238 µM; in the assay with OVCAR-4 ovarian, 1.9 µM; with SK-MEL-28 melanoma, 2.05 µM. The GI50 was 0.466 µM with M14 melanoma, 2.07 µM in the assay on SW-620 colon, 3.33 µM in the assay with PC-3 prostate and 3.65 µM with RXF 393 renal. Also, the TGI in the assay with HCT-15 colon is greater than 100 µM; with HOP-92 NSCLC, 5.6 µM; in the assay with TK-10 renal, 25.4 µM; in the assay on UACC-62 melanoma it was 1.58 µM; in the assay with OVCAR-4 ovarian, greater than 100 µM; in the assay on SK-MEL-28 melanoma, 5.54 µM. Also, the TGI in the assay with M14 melanoma is 10.9 µM; in the assay with SW-620 colon, greater than 100 µM; in the assay on PC-3 prostate it was greater than 100 µM; in the assay on RXF 393 renal, 11 µM.

For the origin of these results see PubChem BioAssay (NCI).
